# Test results from article PMC5851651, “Population-specific design of de-immunized protein biotherapeutics” (PLoS Computational Biology, 2018).
# Assays:
# DRB1*15:01 = molecular target: T1, DRB1*15:01 (Homo sapiens, UniProt P01903+P01911); test: REVEAL HLA-Peptide binding assay (ProImmune); conditions: score relative to high-affinity control peptide, percentage of the control signal
# T1 construct: purchased ProImmune
# Description: (§1) To test the designs, we synthesized twenty overlapping 15-mer peptides containing the introduced mutations and their wild-type counterparts. The peptides maximally covered the predicted epitopes around the mutations of all designed constructs that contained one and two mutations (Supplementary S2 Table). The affinity of these peptides to the three HLA alleles was measured at time zero and after 24 hours (Methods, Supplementary S3 and S4 Tables). We linearly combined the measured relative affinity scores across HLA alleles weighted by their allele frequencies for each peptide respectively to produce a score that approximates the overall immunogenicity (Fig 5A). Results are presented for measurements taken at time point zero. […] Overall, the measured and predicted immunogenicity of the tested peptides correlated well with r = 0.76 (CI95 = [0.48, 0.91], t = 4.885, df = 17, p-value = 1.4e-4; Fig 5A). Next, we compared the predicted and measured gain or loss in immunogenicity for the whole region by reconstructing the targeted region using overlapping peptides. The measured relative scores were linearly combined (as previously) and then normalized to the number of overlapping peptides used in the reconstruction (Fig 5B). The difference in the measured scores between the wild type and mutant regions can be thought of as a proxy for gain or loss in immunogenicity and correlated well to the predicted changes (r = 0.86, CI95 = [0.40, 0.97], t = 4.136, df = 6, p-value = 6.1e-3; Fig 5B).
# (§2) In order to experimentally verify our in silico predictions for Factor VIII, we utilized the commercial REVEAL HLA-Peptide binding assay of ProImmune (www.proimmune.com). Peptides were synthesized using the PEPscreen custom library synthesis method, yielding high purity peptides for experimental analysis. HLA-peptide binding was assessed for the three HLA-DRB1 alleles used in this study (DRB1*15:01, DRB1*03:01 and DRB1*07:01). In short, the method compares the affinity of the studied peptide to the affinity of a high-affinity control peptide. Each peptide is then scored for binding to a certain HLA molecule relative to the score of the control peptide and reported as the percentage of the signal generated by the control peptide.
# DRB1*03:01 = molecular target: T2, DRB1*03:01 (Homo sapiens, UniProt P01903+P01911, A100K/A102G/A103R/A169T/F55Y/I96L/K41T/L162R/M171V/P40S/Q125H/Q178H/Q39Y/R42S/S66N/T106N/T262R/W38E/Y61H); test: REVEAL HLA-Peptide binding assay (ProImmune); conditions: score relative to high-affinity control peptide, percentage of the control signal
# T2 construct: purchased ProImmune
# Description: as §1, §2
# DRB1*07:01 = DRB1*07:01 (Homo sapiens, UniProt P01903+P01911, A100R/A102G/A103Q/D57E/D86V/E43K/F76Y/K127E/L162R/M171V/P40G/Q125H/Q99D/R33Q/R42Y/R54Q/S133A/S66F/T210M/V115G/Y107V/Y59L/Y89S); test: REVEAL HLA-Peptide binding assay (ProImmune); conditions: score relative to high-affinity control peptide, percentage of the control signal
# Description: as §1, §2
# [1] = tested on: DRB1*15:01, DRB1*03:01 and DRB1*07:01; test: Experimental immunogenicity score: relative HLA binding combined across alleles, weighted by allele frequency; parameters: species or system human; key: allele-frequency-weighted sum of binding, % of control peptide signal; conditions: for Difference to WT (Experimental Score): per peptide against wild-type counterpart; for Experimental Score: per peptide, weights DRB1*15:01 0.162, DRB1*07:01 0.146, DRB1*03:01 0.143
# Description: as §1
# Fig 5 (A) Correlation of experimental and predicted immunogenicity of each peptide. The experimental immunogenicity score of a peptide is defined as the linear combination of the individual experimentally determined relative HLA binding affinity of each HLA allele h ∈ H weighted by the HLA allele frequency. (B) Correlation of experimental and predicted immunogenicity of the whole redesigned region. The summarized immunogenicity score of the whole region is the linear combination of the overlapping peptides used to reconstruct the region, normalized by total number of peptides used. The predicted immunogenicity scores per peptide were computed according to our immunogenicity objective function. The red lines are a fitted linear regression and the red tubes represent their 95-confidence interval.
# as §2
# [2] = time 0 (H0), listed as LTRLLRIHPQSWEHQ
# [3] = time 0 (H0), listed as FTRYLRIHPQSWEHQ
# [4] = time 0 (H0), listed as LTRYLRIHPQSWVHQ
# [5] = time 0 (H0), listed as LRIHPQSWEHQIALRM
# [6] = time 0 (H0), listed as LRIHPQSWVHQIALRM
# [7] = time 0 (H0), listed as TTRYLRIHPQSWEHQ
sequence,measurement,setting,value
"LTRLLRIHPQSWEHQ [Design M-7, peptide covering Y2324L, V2333E]",DRB1*15:01,DRB1*15:01; after 24 hours (H24),0.100%
same,DRB1*15:01,DRB1*15:01; time 0 (H0),5.445%
same,DRB1*15:01,DRB1*15:01; [2],5.4%
same,DRB1*03:01,DRB1*03:01; after 24 hours (H24),0.000%
same,DRB1*03:01,DRB1*03:01; time 0 (H0),0.026%
same,DRB1*03:01,DRB1*03:01; [2],0%
same,DRB1*07:01,DRB1*07:01; after 24 hours (H24),20.100%
same,DRB1*07:01,DRB1*07:01; time 0 (H0),33.528%
same,DRB1*07:01,DRB1*07:01; [2],33.5%
same,Difference to WT (Experimental Score),[1]; after 24 hours (H24),-10.436
same,Experimental Score,[1]; after 24 hours (H24),2.951
same,Difference to WT (Experimental Score),[1]; time 0 (H0),-11.941
same,Experimental Score,[1]; time 0 (H0),5.781
"FTRYLRIHPQSWEHQ [Design M-10, peptide covering L2321F, V2333E]",DRB1*15:01,DRB1*15:01; after 24 hours (H24),0.300%
same,DRB1*15:01,DRB1*15:01; time 0 (H0),2.906%
same,DRB1*15:01,DRB1*15:01; [3],2.9%
same,DRB1*03:01,DRB1*03:01; after 24 hours (H24),0.000%
same,DRB1*03:01,DRB1*03:01; time 0 (H0),0.020%
same,DRB1*03:01,DRB1*03:01; [3],0%
same,DRB1*07:01,DRB1*07:01; after 24 hours (H24),27.400%
same,DRB1*07:01,DRB1*07:01; time 0 (H0),43.779%
same,DRB1*07:01,DRB1*07:01; [3],43.8%
same,Difference to WT (Experimental Score),[1]; after 24 hours (H24),-9.338
same,Experimental Score,[1]; after 24 hours (H24),4.049
same,Difference to WT (Experimental Score),[1]; time 0 (H0),-10.856
same,Experimental Score,[1]; time 0 (H0),6.865
"LTRYLRIHPQSWVHQ [WT-3, wild-type peptide of Factor VIII C2 domain, reference compound]",DRB1*15:01,DRB1*15:01; after 24 hours (H24),15.728%
same,DRB1*15:01,DRB1*15:01; time 0 (H0),30.478%
same,DRB1*15:01,DRB1*15:01; [4],30.5%
same,DRB1*03:01,DRB1*03:01; after 24 hours (H24),0.243%
same,DRB1*03:01,DRB1*03:01; time 0 (H0),0.243%
same,DRB1*03:01,DRB1*03:01; [4],0.2%
same,DRB1*07:01,DRB1*07:01; after 24 hours (H24),74.002%
same,DRB1*07:01,DRB1*07:01; time 0 (H0),87.324%
same,DRB1*07:01,DRB1*07:01; [4],87.3%
same,Experimental Score,[1]; after 24 hours (H24),13.387
same,Experimental Score,[1]; time 0 (H0),17.722
"LRIHPQSWEHQIALRM [Design M-6, peptide covering V2333E]",DRB1*15:01,DRB1*15:01; after 24 hours (H24),11.600%
same,DRB1*15:01,DRB1*15:01; time 0 (H0),44.319%
same,DRB1*15:01,DRB1*15:01; [5],44.3%
same,DRB1*03:01,DRB1*03:01; after 24 hours (H24),0.000%
same,DRB1*03:01,DRB1*03:01; time 0 (H0),0.157%
same,DRB1*03:01,DRB1*03:01; [5],0.2%
same,DRB1*07:01,DRB1*07:01; after 24 hours (H24),19.800%
same,DRB1*07:01,DRB1*07:01; time 0 (H0),32.020%
same,DRB1*07:01,DRB1*07:01; [5],32%
same,Difference to WT (Experimental Score),[1]; after 24 hours (H24),-3.607
same,Experimental Score,[1]; after 24 hours (H24),4.770
same,Difference to WT (Experimental Score),[1]; time 0 (H0),-4.693
same,Experimental Score,[1]; time 0 (H0),11.877
"LTRYLKIHPQSWEHQ [Design M-9, peptide covering R2326K, V2333E]",DRB1*15:01,DRB1*15:01; after 24 hours (H24),0.300%
same,DRB1*15:01,DRB1*15:01; time 0 (H0),5.434%
same,DRB1*03:01,DRB1*03:01; after 24 hours (H24),0.000%
same,DRB1*03:01,DRB1*03:01; time 0 (H0),1.668%
same,DRB1*07:01,DRB1*07:01; after 24 hours (H24),17.900%
same,DRB1*07:01,DRB1*07:01; time 0 (H0),28.951%
same,Difference to WT (Experimental Score),[1]; after 24 hours (H24),-10.725
same,Experimental Score,[1]; after 24 hours (H24),2.662
same,Difference to WT (Experimental Score),[1]; time 0 (H0),-12.376
same,Experimental Score,[1]; time 0 (H0),5.346
"RIHPQSWVHHIALRM [Design M-4, peptide covering Q2335H]",DRB1*15:01,DRB1*15:01; after 24 hours (H24),0.000%
same,DRB1*15:01,DRB1*15:01; time 0 (H0),9.756%
same,DRB1*03:01,DRB1*03:01; after 24 hours (H24),0.000%
same,DRB1*03:01,DRB1*03:01; time 0 (H0),0.005%
same,DRB1*07:01,DRB1*07:01; after 24 hours (H24),53.300%
same,DRB1*07:01,DRB1*07:01; time 0 (H0),75.329%
same,Difference to WT (Experimental Score),[1]; after 24 hours (H24),2.595
same,Experimental Score,[1]; after 24 hours (H24),7.782
same,Difference to WT (Experimental Score),[1]; time 0 (H0),5.857
same,Experimental Score,[1]; time 0 (H0),12.579
"LRIHPQSWVHQIALRM [WT-4, wild-type peptide of Factor VIII C2 domain, reference compound]",DRB1*15:01,DRB1*15:01; after 24 hours (H24),17.219%
same,DRB1*15:01,DRB1*15:01; time 0 (H0),50.927%
same,DRB1*15:01,DRB1*15:01; [6],50.9%
same,DRB1*03:01,DRB1*03:01; after 24 hours (H24),0.021%
same,DRB1*03:01,DRB1*03:01; time 0 (H0),0.200%
same,DRB1*03:01,DRB1*03:01; [6],0.2%
same,DRB1*07:01,DRB1*07:01; after 24 hours (H24),38.252%
same,DRB1*07:01,DRB1*07:01; time 0 (H0),56.788%
same,DRB1*07:01,DRB1*07:01; [6],56.8%
same,Experimental Score,[1]; after 24 hours (H24),8.377
same,Experimental Score,[1]; time 0 (H0),16.570
"TTRYLRIHPQSWEHQ [Design M-11, peptide covering L2321T, V2333E]",DRB1*15:01,DRB1*15:01; after 24 hours (H24),1.600%
same,DRB1*15:01,DRB1*15:01; time 0 (H0),6.575%
same,DRB1*15:01,DRB1*15:01; [7],6.6%
same,DRB1*03:01,DRB1*03:01; after 24 hours (H24),0.000%
same,DRB1*03:01,DRB1*03:01; time 0 (H0),0.544%
same,DRB1*03:01,DRB1*03:01; [7],0.5%
same,DRB1*07:01,DRB1*07:01; after 24 hours (H24),49.600%
same,DRB1*07:01,DRB1*07:01; time 0 (H0),71.612%
same,DRB1*07:01,DRB1*07:01; [7],71.6%
same,Difference to WT (Experimental Score),[1]; after 24 hours (H24),-5.886
same,Experimental Score,[1]; after 24 hours (H24),7.501
same,Difference to WT (Experimental Score),[1]; time 0 (H0),-6.123
same,Experimental Score,[1]; time 0 (H0),11.598
